Data set [1] in a line: Acute toxicity (LD50), intragastral administration, male mice. The settings on record: mouse, in vivo, po.
Data set [2] relates to rats. In words: Behavioural test in rats, modified after Irwin. In kind it is in vivo. The source says: 2. Behavioural test in rats, modified after Irwin, Psychopharmacologica. (Berl.); 13, pgs. 222-257 (1968).
Data set [3] in a line: Prolongation of evipan sodium narcosis. In kind it is in vivo. From the text:
3. Prolongation of evipan sodium narcosis, Arch. Int. Pharmacodyn; 126, pgs. 219-227 (1960).

Data set [4] has as its system dogs. The experiment in a line: Alphalysis (alphalytic activity) in dogs. To be noted: for alphalytic activity: from 1 mg./kg. i.v. The class given is in vivo. The protocol:
4. Alphalysis, Medizinische Wochenschrift; 81, pg. 352 (1951).
The alphalytic activity of the compounds of Examples 8 and 9 was tested on dogs.

Each structure is given as a SMILES string.

This note sets out measurements from US4425350A, “5,6,6a,7-Tetrahydro-4H-dibenz(de,g)-isoquinoline derivatives, and their use for treating central nervous system disorders” (Warner-Lambert Company, priority 1980, dated 1984).

As a reminder, the LD50 is the dose expected to kill half of the subjects tested.

In data set [1], `COc1cc2c(cc1OC)-c1c(OC)c(OC)cc3c1C(CNC3)C2` (racemic) [Example 7, (±)-5,6,6a,7-Tetrahydro-1,2,9,10-tetramethoxy-4H-dibenz(de,g)isoquinolin] registered a 50% lethal dose (LD50) of roughly 600 mg/kg. In addition, in data set [2] (150 mg./kg.), the catatonia entry is on record as “catatonia”, the “lowering of the body temperature” value is recorded as “lowering of the body temperature”, the ptosis entry is listed as “ptosis” and the sedation result is on record as “sedation”. Further, the “prolongation of the sleeping time in %” value in data set [3] (dosage 50 mg./kg.) is recorded as 147%. Besides, the “prolongation of the sleeping time in %” value in data set [3] (dosage 100 mg./kg.) is 324%.
For `COc1cc2c(cc1OC)-c1c(OC)c(OC)cc3c1C(C2)CN(C)C3` (racemic) [Example 8, (±)-5,6,6a,7-Tetrahydro-1,2,9,10-tetramethoxy-5-methyl-4H-dibenz(de,g)isoquinoline], in data set [1], the 50% lethal dose (LD50) turned out to be 800 mg/kg. Besides, the alphalytic activity entry in data set [4] is on record as “a distinct alphalytic activity is detectable”. The “alphalytic action after intraduodenal administration” value in data set [4] (intraduodenal) is reported as “the action could also be confirmed after intraduodenal administration”. In addition, in data set [2] (300 mg./kg.), the catatonia result is on record as “catatonia”, the “lowering of the body temperature” value is given as “lowering”, the muscle tonus entry is “reduced muscle tonus” and the ptosis entry was “ptosis”. The sedation result in data set [2] (300 mg./kg.) is given as “sedation”. Moreover, the “prolongation of the sleeping time in %” value in data set [3] (dosage 50 mg./kg.) is recorded as 64%.
`COc1cc2c3c(c1OC)CN(C)CC3Cc1cc3c(cc1-2)OCO3` (racemic) [Example 9, (±)-5,6,6a,7-tetrahydro-2,3-dimethoxy-9,10-methylenedioxy-5-methyl-4H-dibenz(de,g)isoquinoline]: the LD50 in data set [1] was roughly 1200 mg/kg. The alphalytic activity result in data set [4] was “a distinct alphalytic activity is detectable”. In data set [2] (150 mg./kg.), the catatonia result is given as “catatonia”, the “lowering of the body temperature” value was “lowering” and the sedation entry is reported as “sedation”. Moreover, the “behaviour (change of symptoms versus 150 mg./kg.)” value in data set [2] (300 mg./kg., symptoms at 150 mg./kg.: sedation, catatonia, lowering of the body temperature) is listed as “strengthening of the symptoms”. Besides, the “prolongation of the sleeping time in %” value in data set [3] (dosage 50 mg./kg.) is 339%. The “prolongation of the sleeping time in %” value in data set [3] (dosage 100 mg./kg.) is 417%.
In data set [1], `COc1cc2c(cc1OC)-c1cc(OC)c(OC)c3c1C(C2)CN(C)C3` (racemic) [Example 10, (±)-5,6,6a,7-Tetrahydro-2,3,9,10-tetramethoxy-5-methyl-4H-dibenz(de,g)isoquinoline] showed a 50% lethal dose (LD50) of roughly 1200 mg/kg. For the same molecule, in data set [2] (150 mg./kg.), the catatonia entry was “catatonia”, the muscle tonus result is recorded as “reduced muscle tonus” and the sedation result was “sedation”. Moreover, the “prolongation of the sleeping time in %” value in data set [3] (dosage 50 mg./kg.) amounted to 268%. The “prolongation of the sleeping time in %” value in data set [3] (dosage 100 mg./kg.) amounted to 347%.
